Measured values reported in patent publication US5770595A, “Oxime substituted therapeutic compounds” (Cell Therapeutics, Inc., priority 1994, dated 1998).

Tests used:
[1] = test system: VCAM in HUVEC cells; assay: cell surface expression of VCAM in HUVEC; type: cell-based, human; settings: human TNF-α 20 ng/ml, 20 hours; FIG. 11
Protocol: Drug inhibitory activity can also be measured by determining levels of vascular cell adhesion molecule (VCAM) in stimulated cells. Early passage human umbilical vein endothelial cells (HUVEC) (obtained from commercial suppliers such as Cell Systems, Inc. or Clonetics) are cultured in media (e.g., Hepes buffered media, Cell Systems) containing 10% fetal bovine serum, and supplemented with a stimulating agent, such as fibroblast growth factor (acidic FGF, Cell Systems, Inc.) or TNF. The cells are plated into wells of a microtiter plate (e.g., 5×10^4 per well) and allowed to incubate at 37° C. for 72 hrs. The resting cells are removed (e.g., 20-30 min treatment with 0.4% EDTA), washed in media (e.g., phosphate buffered saline plus 0.1% bovine serum albumin with 0.01% sodium azide) and labeled on ice with a monoclonal antibody ("first antibody") recognizing human VCAM (e.g., 1 μg of a murine monoclonal antibody recognizing human VCAM, Genzyme). After 60 min on ice, the cells are washed (preferably twice) with cold wash media and incubated with an antibody that recognizes the first antibody (e.g., 1 μg of goat anti-mouse IgG conjugated with phycoerythrin, CalTag, Inc.). After 30 min on ice, the cells are washed twice and analyzed on a flow cytometer (Coulter Elite®) at appropriate emission and excitation wavelengths (e.g., for phycoerytlrin use excitation at 488 nm and emission at 525 nm).
The cells were stimulated with human TNF-α (20 ng/ml) for 20 hours and then stained for immunofluorescence using a monoclonal antibody recognizing VCAM, followed by a goat anti-mouse antibody conjugated to phycoerythrin. The cells were analyzed for antibody binding using flow cytometry. […] 1521 and 1522 at the indicated drug concentrations.
This example was used to investigate inhibition of vascular cell adhesion molecule (VCAM) expression on HUVEC by inventive compound no. 2525. VCAM expression by endothelial cells is an early event in atherogenesis and multiple sclerosis, among other various autoimmune diseases. FIG. 17, a plot of percent surface expression versus concentration of compound no.

[2] = test system: human stromal cells; assay: proliferation of human stromal cells stimulated with PDGF; type: cell-based; settings: 50 ng/ml PDGF-BB
Protocol: Another assay for measuring activity of the inventive compounds involves determining PDGF (platelet derived growth factor) proliferative response using human-derived stromal cells. Human stromal cells are plated (e.g., about 2000 cells per well) in defined media (e.g., 69% McCoy's, 12.5% fetal calf serum, 12.5% horse serum, 1% antibiotics, 1% glutamine, 1% vitamin supplement, 0.8% essential amino acids, 1% sodium pyruvate, 1% sodium bicarbonate, 0.4% non-essential amino acids and 0.36% hydrocortisone). Two to three days later, the stromal cells are starved in serum-free media. Twenty four hours later, the cells are treated with a stimulating agent, such as PDGF-AA, PDGF-BB or basic FGF (fibroblast growth factor) with or without IL-1α or TNF, and tritiated thymidine. Cell proliferation is determined by liquid scintillation counting.
This example illustrates the ability of inventive compounds nos. […] This assay is a model for restenosis and treatment of atherosclerosis and coronary artery disease. Stromal cells were starved in serum-free media for one day and then stimulated with 50 ng/ml PDGF-BB. The drugs were added at the indicated concentrations one hour prior to PDGF stimulation. Tritiated thymidine was added for one day at the time of PDGF stimulation and the cells were harvested and counted by liquid scintillation counting 24 hours later. […]

[3] = test system: PBMC (peripheral blood mononuclear cells); assay: two-way mixed lymphocyte reaction; type: cell-based, human; settings: FIG. 1; 6 days culture
Text: Various in vitro assays can be used to measure effects of the inventive compounds to module immune activity and have antitumor activity using a variety of cellular types. For example, a mixed lymphocyte reaction (MLR) provides a valuable screening tool to determine biological activity of each inventive compound. In the MLR, PBMCs (peripheral blood mononuclear cells) are obtained by drawing whole blood from healthy volunteers in a heparinized container and diluted with an equal volume of hanks balanced salt solution (HBSS). This mixture is layered on a sucrose density gradient, such as a Ficoll-Hypaque® gradient (specific gravity 1.08), and centrifuged at 1000×g for 25 minutes at room temperature or cooler. PBMC are obtained from a band at a plasma-Ficoll interface, separated and washed at least twice in a saline solution, such as HBSS. Contaminating red cells are lysed, such as by ACK lysis for 10 min at 37° C., and the PBMCs are washed twice in HBSS. The pellet of purified PBMCs is resuspended in complete medium, such as RPMI 1640 plus 20% human inactivated serum. Proliferative response of PBMC to allogeneic stimulation is determined in a two-way MLR performed in a 96-well microtiter plate. Briefly, approximately 10^5 test purified PBMC cells in 200 μl complete medium are co-cultured with approximately 10^5 autologous (control culture) or allogeneic (stimulated culture) PBMC cells, wherein the allogeneic cells are from HLA disparate individuals. Varying doses of compounds (drug) are added at the time of addition of cells to the microtiter plate. The cultures are incubated for 6 days at 37° C. in a 5% CO2 atmosphere. At the conclusion of the incubation tritiated thymidine is added (for example, 1 μCi/well of 40 to 60 Ci/mmole) and proliferation determined by liquid scintillation. counting.
Example 10 illustrates a mixed lymphocyte reaction of inventive compounds nos. 1521 and 1522 (see above for chemical name and structure). […] Both compounds nos. […]

Compound | inhibition of cell surface expression of VCAM [1] | inhibition of proliferation of stromal cells stimulated with PDGF [2] | proliferative response of PBMC to allogeneic stimulation (MLR) [3]
CON=C(C)CCCCn1c(=O)c2c(ncn2C)n(C)c1=O [Compound no. 1522] | inhibit cell surface expression of VCAM in HUVEC cells | strongly inhibit proliferation of human stromal cells | showed activity in this immune modulating activity assay procedure
CC(CCCCn1c(=O)c2c(ncn2C)n(C)c1=O)=NO [Compound no. 1521] | inhibit cell surface expression of VCAM in HUVEC cells | strongly inhibit proliferation of human stromal cells | showed activity in this immune modulating activity assay procedure
